# “Also recorded” adds a separate entry of the source. Where a SMILES comes first, the peptide text is derived from it. Bridges are numbered along the chain shown (N, C = ends).
# Key:
# [1] = tested on: primary murine skin fibroblasts; assay: Western blotting of cell-associated mature alpha-1 type I collagen; type: cell-based, mouse; settings: P12-3A 100 μM
# Method: (§1) FIG. 4A-F. Effects of P12-3A on cultured skin cells. A, Insulin concentrations as a function of time in logarithmically growing primary murine skin fibroblasts in the absence or presence of P12-3A (100 μM). […] Data are mean±SEM of 4 independent replications. *P<0.05, **P<0.01. B, Proliferation of cells in the absence or presence of P12-3A (100 μM). […] C,D,E, P12-3A (100 μM) potentiates insulin-induced collagen production in skin fibroblasts. Collagen production was assessed by COL1A1 mRNA levels (C), levels of hydroxyproline secreted into the medium (D), and cell-associated mature alpha-1 type I collagen levels detected by Western blotting (E). […] Migration of HaCaT cells 48 h after induction of a scratch wound in the presence of the indicated quantities of insulin and/or P12-3A (100 μM). […]
# (§2) Insulin promotes wound healing and overall skin health by affecting a number of processes, including cell proliferation (2,3), cell migration (5,6), and the production and secretion of ECM components, particularly type I collagen (7-13). We therefore assessed the ability of P12-3A to influence these processes in cultured skin fibroblasts and keratinocytes. To that end, primary mouse skin fibroblasts were grown for 4 d in multiple concentrations of insulin in the presence or absence of P12-3A, and insulin concentration over time was monitored by ELISA. […]
# [2] = tested on: HaCaT cells; assay: In vitro scratch wound assay, keratinocyte migration; type: cell-based; settings: P12-3A 100 μM, 48 h after scratch wound, different concentrations of insulin
# Method: as §1, §2
compound,measurement,setting,value
CC(C)C[C@H](NC(=O)[C@H](CO)NC(=O)[C@@H](N)CCC(N)=O)C(=O)N1CCC[C@H]1C(=O)N[C@@H](Cc1c[nH]c2ccccc12)C(=O)N[C@H]1CSSC[C@@H](C(=O)N[C@H](C(=O)N[C@H](C(N)=O)[C@@H](C)O)C(C)C)NC(=O)[C@H](Cc2c[nH]cn2)NC(=O)[C@@H]2CCCN2C(=O)[C@H](Cc2ccc(O)cc2)NC1=O [Peptide P12-3A] (H-QSLPWCYPHCVT-NH2; disulfide 6-10 (inferred)),"mature, cell-associated collagen levels",[1],increased
same,migration of keratinocytes,[2],significantly increase; also recorded: potentiates the migration of keratinocytes

# From patent publication US11555055B2, “Peptide inhibitors of insulin-degrading enzyme” (The Regents of the University of California, priority 2017, dated 2023)
